Test results taken from patent US20140011867A1, “EFFECT OF BORRELIDIN FOR CONTROLLING SOYBEAN PHYTOPHTHORA ROOT ROT” (ZHEJIANG HISUN PHARMACEUTICAL CO., LTD., priority 2011, published 2014).
In brackets after ≈: the same amount, converted by molar mass. Where two headings read alike, the source gives them in different places.

Test system: Phytophthora sajae Kaufmann & Gerdeman
Experiment: Mycelial growth inhibition assay (growth rate method)
Assay type: cell-based
Set-up: IC50 as fraction of that of metalaxyl: unit not given beside the values
Description: Growth rate method was used in the assays. […] Phytophthora sajae Kaufmann & Gerdeman cultures after 7 days of culture were punched using a sterile punch (Ø0.5cm) and put on standby, and the cultures were later transferred onto […] (CA) plate culture media and placed at a temperature of 27±1° C., and colony diameters were measured after 7 days of culture.

[1] = mycelial growth, CA plate, 27±1° C., colony diameter after 7 days
[2] = mycelial growth inhibition assay

Compound | IC50 (Phytophthora, 168 h, mycelial growth, CA plate, 27±1° C., colony diameter after 7 days, read-out: IC50) | IC95 [1] | IC50 as fraction of that of metalaxyl [2] | IC95 as fraction of that of metalaxyl [2] | IC50 (mycelial growth inhibition assay, unit inferred) | IC95 (mycelial growth inhibition assay, unit not given)
COCC(=O)N(c1c(C)cccc1C)C(C)C(=O)OC (stereo not shown) [Metalaxyl, reference compound] | 0.35 µg/mL (≈ 1.25 µM) | 6.85 µg/mL (≈ 24.5 µM) | – | – | – | –
Borrelidin | – | 0.026 µg/mL | 1/62 | 1/263 | 0.0056 µg/mL | 0.026
